Experimental data as given in patent publication US9675697B2 (THE REGENTS OF THE UNIVERSITY OF MICHIGAN, priority 2013, dated 2017).
pKi: −log10 of the molar value.

Tests used:
[1] = test system: MOLM-13; test: Cell growth inhibition, CellTiter-Glo, acute leukemia cell line; assay type: cell-based; settings: Homo sapiens, MOLM-13, 96 h, 4 days
Experimental: (§1) Cell growth inhibitory activity of representative BET bromodomain inhibitors was determined using CellTiter-Glo® Luminescent Cell Viability Assay. For leukemia cell lines MV-4-11 (ATCC, Manassas, Va.) and MOLM-13 (DSMZ, Germany), cells were seeded in 96-well white opaque cell culture plates at a density of 10,000 cells/well with serially diluted compounds and incubated at 37° C. in an atmosphere of 95% air and 5% CO2 for 4 days. Cell viability was determined using the CellTiter-Glo® Luminescent Cell Viability Assay Kit (Promega, Madison, Wis.) according to the manufacture's instruction. Briefly, a volume of CellTiter-Glo® Reagent equal to the volume of cell culture medium was added to each well, and then the plates were incubated at room temperature for 10-20 minutes. The luminescent signal was measured using a Tecan Infinite M1000 multimode microplate reader (Tecan, Morrisville, N.C.). The half maximal inhibitory concentration (IC50) was calculated using the GraphPad Prism 5 software (GraphPad Software, La Jolla, Calif.).

[2] = test system: MV-4-11; test: as above; assay type: cell-based; settings: Homo sapiens, MV4-11, 96 h, 4 days
Experimental: as §1

[3] = test system: BT-474; test: Cell growth inhibition, WST-8, breast cancer cell line; assay type: cell-based; settings: Homo sapiens, BT-474, 96 h, 4 days
Experimental: (§2) For breast cancer cell lines, cells were seeded in 96-well cell culture plates at a density of 5,000-10,000 cells/well with serially diluted compounds and incubated at 37° C. in an atmosphere of 95% air and 5% CO2 for 4 days. All the breast cancer cell lines were obtained from the ATCC. Cell viability was determined using the WST-8 (2-(2-methoxy-4-nitrophenyl)-3-(4-nitrophenyl)-5-(2,4-disulfophenyl)-2H-tetrazolium, monosodium salt) based Cell Counting-8 Kit (Dojindo Molecular Technologies, Inc., Rockville, Md.) according to the manufacture's instruction. Briefly, WST-8 was added to each well at a final concentration of 10% (v/v), and then the plates were incubated at 37° C. for 1-2 hours for color development. The absorbance was measured at 450 nm using a SPECTRAmax PLUS plate reader (Molecular Devices, Sunnyvale, Calif.). The IC50 was calculated using the GraphPad Prism 5 software.

[4] = test system: MDA-MB-157; test: as above; assay type: cell-based; settings: Homo sapiens, MDA-MB-157, 96 h, 4 days
Experimental: as §2

[5] = test system: MDA-MB-231; test: as above; assay type: cell-based; settings: Homo sapiens, MDA-MB-231, 96 h, 4 days
Experimental: as §2

[6] = test system: MDA-MB-436; test: as above; assay type: cell-based; settings: Homo sapiens, MDA-MB-436, 96 h, 4 days
Experimental: as §2

[7] = test system: SK-BR-3; test: as above; assay type: cell-based; settings: Homo sapiens, SK-BR-3, 96 h, 4 days
Experimental: as §2

[8] = test system: prostate VCaP cell line; test: Cell growth inhibition, Cell TiterGLO, 4 days; assay type: cell-based; settings: Homo sapiens, VCaP, 96 h, treated 4 days, read-out: VCaP cells (IC50 (nM))
[9] = target: BRD2 BD1 (Homo sapiens (Human), UniProt P25440); test: FP competitive binding assay using Cpd. No. 350 as the probe; settings: read-out: BRD2 BD1 Ki; FP, Cpd. No. 350 probe […]
Sequence of BRD2 BD1 (P25440 74-180): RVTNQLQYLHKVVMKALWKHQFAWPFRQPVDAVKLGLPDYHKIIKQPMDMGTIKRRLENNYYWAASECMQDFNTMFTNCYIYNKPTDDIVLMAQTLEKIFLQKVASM

[10] = target: BRD2 BD2 (Homo sapiens (Human), UniProt P25440); test: as above; settings: read-out: BRD2 BD2 Ki; FP, Cpd. No. 350 probe […]
Sequence of BRD2 BD2 (P25440 344-453): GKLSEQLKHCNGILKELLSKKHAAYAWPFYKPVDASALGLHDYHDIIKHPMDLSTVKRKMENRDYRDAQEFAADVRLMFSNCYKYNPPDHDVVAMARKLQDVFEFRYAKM
Experimental: (§3) Fluorescence Polarization (FP) competitive binding studies (see above) were carried out using the FAM labeled fluorescent probe Cpd. No. 350 to determine binding affinities of representative compounds to both BD1 and BD2 of BRD2, BRD3, and BRD4 proteins. Equilibrium dissociation constants (Id) values of Cpd. No. 350 to these six proteins were determined from protein saturation experiments by monitoring the total fluorescence polarization of mixtures composed with the fluorescent probe at a fixed concentration and proteins with increasing concentrations up to full saturation. Serial dilutions of testing protein were mixed with Cpd. No. 350 to a final volume of 200 μl in the assay buffer. […] Plates were incubated at room temperature for 30 minutes with gentle shaking to assure equilibrium. […] Kd values of Cpd.
(§4) The IC50 and Ki values of compounds were determined in a competitive binding experiment as described above. […] FP values were measured as described above. IC50 values were determined by nonlinear regression fitting of the competition curves.

[11] = target: BRD3 BD1 (Homo sapiens (Human), UniProt Q15059); test: as above; settings: read-out: BRD3 BD1 Ki; FP, Cpd. No. 350 probe […]
Sequence of BRD3 BD1 (Q15059 34-140): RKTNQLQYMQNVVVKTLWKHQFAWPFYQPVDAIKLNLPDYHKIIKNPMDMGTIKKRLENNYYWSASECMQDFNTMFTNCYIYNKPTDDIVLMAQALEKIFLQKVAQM
Experimental: as §3, §4

[12] = target: BRD3 BD2 (Homo sapiens (Human), UniProt Q15059); test: as above; settings: read-out: BRD3 BD2 Ki; FP, Cpd. No. 350 probe […]
Sequence of BRD3 BD2 (Q15059 306-415): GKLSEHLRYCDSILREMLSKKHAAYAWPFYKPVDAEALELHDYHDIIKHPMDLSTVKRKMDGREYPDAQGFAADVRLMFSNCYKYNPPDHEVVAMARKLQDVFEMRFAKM
Experimental: as §3, §4

[13] = target: BRD4 BD1 (Homo sapiens (Human), UniProt O60885); test: as above; settings: read-out: BRD4 BD1 Ki; FP, Cpd. No. 350 probe […]
[14] = target: BRD4 BD2 (Homo sapiens (Human), UniProt O60885); test: as above; settings: read-out: BRD4 BD2 Ki; FP, Cpd. No. 350 probe […]
Experimental: as §3, §4

COc1cc2c(cc1-c1c(C)noc1C)[nH]c1nc(C)nc(-c3c(C)[nH]c4ccccc34)c12 [Cpd. No. 68]
IC50 [1]: < 100 nM | IC50 [2]: < 100 nM | IC50 [3]: < 300 nM | IC50 [4]: < 300 nM | IC50 [5]: < 300 nM | IC50 [6]: < 300 nM | IC50 [7]: < 300 nM | IC50 [8]: 148 nM | pKi [9]: 8.49 | pKi [10]: 8.57 | pKi [11]: 8.29 | pKi [12]: 9.19 | pKi [13]: 8.14 | pKi [14]: 8.77
